From patent US7709516B2, “Helix 12 directed non-steroidal antiandrogens” (Endorecherche, Inc., priority 2005, dated 2010)
Read-outs that look alike come from different tables or passages of the source.

What was measured:
[1] = test system: rat prostate, seminal vesicle, levator ani muscle; assay: Systemic antiandrogenic activity in orchidectomized immature male rats with DHT implant; format: in vivo; conditions: Rattus norvegicus, 168 h, rat +DHT, s.c. or p.o. (route not marked), 0.5 mg/animal daily 7 days
[2] = test system: sebaceous glands of the left ear; assay: Topical antiandrogenic activity, ear sebaceous glands model in the male hamster; format: in vivo; conditions: 3 μg daily dose for 14 days
Experimental: Column 5 represents the percentage of inhibition of the area of the sebaceous glands of the left ear of the treated animals versus the area of the sebaceous glands of the left ear of the control animals. A 3 μg-daily dose for 14 days of tested compound dissolved in ten μL solution of ethanol: propylene Glycol (1:1; v: v) applied onto a region between the two cartilage ridges of the ventral surface of left pinna.
D—In vivo Assessment of Topical Antiandrogenic Activity
The antiandrogenic activity of compounds for topical use was determined using the ear sebaceous glands model in the male hamster.
Male Golden Syrian Hamsters (SYR) of 110-120 g were obtained from Harlan Sprague-Dawley (Madison, USA) and housed up to 2 per plastic cage in a temperature (22±3° C.) and light (12 h light/day, lights on at 7h15)-controlled environment. The hamsters were fed with Certified Rodent Diet 5002 (pellet) and had access to tap water ad libitum. […]
The total area of the sebaceous glands (μm^2) in each examined field was calculated by the Image Analyser. We also measured the total area, which has the length of 0.953 mm and the height between stratum granulosum and the cartilage. […] Thus, for each ear, two sections were cut and two fields from each section were analyzed. The total of the four readings was averaged and the mean standard error of the mean was calculated by the image analyzer. […]

Human Androgen Receptor = biological target: T1, Human Androgen Receptor (Homo sapiens, UniProt P10275); assay: Androgen receptor binding assay ([3H]R1881, HAP) in cytosol of HEK-293 cells transfected with hAR; conditions: relative to R1881 = 100, transfected cells
T1 sequence (P10275 1-920): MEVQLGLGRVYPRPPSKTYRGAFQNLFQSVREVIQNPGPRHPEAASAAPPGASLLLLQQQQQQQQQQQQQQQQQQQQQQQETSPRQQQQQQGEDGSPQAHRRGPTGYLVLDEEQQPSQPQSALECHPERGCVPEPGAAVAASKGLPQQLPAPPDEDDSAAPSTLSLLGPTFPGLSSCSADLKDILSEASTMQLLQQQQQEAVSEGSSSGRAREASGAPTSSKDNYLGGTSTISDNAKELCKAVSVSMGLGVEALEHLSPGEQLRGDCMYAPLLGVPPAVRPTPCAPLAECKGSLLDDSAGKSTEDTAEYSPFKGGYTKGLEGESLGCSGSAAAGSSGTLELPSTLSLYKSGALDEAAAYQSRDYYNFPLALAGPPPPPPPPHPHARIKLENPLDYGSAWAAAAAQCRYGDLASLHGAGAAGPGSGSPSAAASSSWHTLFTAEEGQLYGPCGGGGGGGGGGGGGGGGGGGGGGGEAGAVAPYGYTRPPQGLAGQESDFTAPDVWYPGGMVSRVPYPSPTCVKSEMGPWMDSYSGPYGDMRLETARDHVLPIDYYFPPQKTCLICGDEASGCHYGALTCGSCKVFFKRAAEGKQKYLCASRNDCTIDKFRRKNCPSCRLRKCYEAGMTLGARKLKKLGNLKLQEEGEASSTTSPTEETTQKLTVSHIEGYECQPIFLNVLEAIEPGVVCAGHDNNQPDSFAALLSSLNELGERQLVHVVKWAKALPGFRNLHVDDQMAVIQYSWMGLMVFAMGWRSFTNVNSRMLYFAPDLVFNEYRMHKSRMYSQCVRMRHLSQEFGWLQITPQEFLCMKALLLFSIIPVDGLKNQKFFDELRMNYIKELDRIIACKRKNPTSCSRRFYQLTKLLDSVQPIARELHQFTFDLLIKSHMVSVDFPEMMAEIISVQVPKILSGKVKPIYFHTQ

[3] = test system: Shionogi mouse mammary carcinoma cells; assay: Androgenic/antiandrogenic activity: inhibition of DHT-stimulated Shionogi cell number; format: cell-based; conditions: Mus musculus, DHT-stimulated Shionogi cell number

CCC(c1ccc(OCCC2(O)CCN(c3ccc(C#N)c(C(F)(F)F)c3)CC2)cc1)N1CCCC1 (centres unmarked) [EM-7893, 4-(4-{2-[4-(1-propyl-pyrolidine)-phenoxy]-ethyl}-4-hydroxy-piperidin-1-yl)-2-trifluoromethyl-benzonitrile]
inhibition in vivo at 0.5 mg ([1]; read-out: Lev Ani % inhibition, Table 2, levator ani): 26% | inhibition in vivo at 0.5 mg ([1]; read-out: Prostate % inhibition, Table 2): 6% | inhibition in vivo at 0.5 mg ([1]; read-out: SV % inhibition, Table 2, seminal vesicle): 38% | Hamster Topical 3 μg dose % inhibition vs cx (area of sebaceous glands of the left ear) [2]: 47% | Human Androgen Receptor Binding (%) RBA R1881 = 100 (Human Androgen Receptor; Table 2): 10.3% | Human Androgen Receptor Binding (%) RBA R1881 = 100 (Human Androgen Receptor; Table 4): 10.3% | IC50 ([3]; read-out: Shionogi Antiandrogenic Activity IC50, Table 2): 5.1 nM | IC50 ([3]; read-out: Shionogi Antiandrogenic Activity IC50, Table 4): 5.1 nM
